According to US5225607A, “Insecticidal ethers” (Imperial Chemical Industries PLC, priority 1985, dated 1993):

What was measured:
Format in all cases: in vivo
Blattella germanica = assay: Insecticidal test, Blattella germanica (cockroach nymphs), residual; conditions: 72 h, plastic pot, 3 days, read-out: grading of mortality, BG
Protocol: (§1) The activity of the Product was determined using a variety of insect and acarine pests. The Product was used in the form of liquid preparations containing 500, 250 or 100 parts per million (ppm) by weight of the Product. The preparations were made by dissolving the Product in acetone and diluting the solutions with water containing 0.01% by weight of a wetting agent sold under the trade name "LISSAPOL" NX until the liquid preparations contained the required concentratio of the Product. "Lissapol" is a Registered Trade Mark.
(§2) The test procedure adopted with regard to each pest was basically the same and comprised supporting a number of the pests on a medium which was usually a host plant or a foodstuff on which the pests feed, and treating either or both the pests and the medium with the preparations. The mortality of the pests was then assessed at periods usually varying from one to three days after the treatment.
(§3) The results of the tests are given in Table IV for each of the Products, at the rate in parts per million given in the second column as a grading of mortality designated as A, B or C wherein A indicates 80-100% mortality or knockdown (70-100% in the case of Spodoptera exigua), B indicates 50-79% mortality or knockdown (50-69% in the case of Spodoptera exigua) and C indicates less than 50% mortality or knockdown.
(§4) In Table IV the pest organism used is designated by a letter code and the pest species, the support medium or food, and the type and duration of test is given in Table III.

Diabrotica balteata = assay: Insecticidal test, Diabrotica balteata (rootworm larvae), residual; conditions: 72 h, filter paper/maize seed, 3 days, read-out: grading of mortality, DB
Protocol: as §1, §2, §3, §4

Myzus persicae = assay: Insecticidal test, Myzus persicae (aphids), contact; conditions: 72 h, Chinese Cabbage leaf, 3 days, read-out: grading of mortality, MP
Protocol: as §1, §2, §3, §4

Nilaparvata lugens = assay: Insecticidal test, Nilaparvata lugens (brown planthopper), contact; conditions: 72 h, Cabbage leaf, 3 days, read-out: grading of mortality, NL
Protocol: as §1, §2, §3, §4

Heliothis virescens = assay: whole plant or invertebrate; conditions: in Gossypium hirsutum, 72 h, read-out: grading of mortality, HV
Protocol: as §1, §2, §3, §4

Musca domestica [1] = assay: Knockdown test, Musca domestica (houseflies - adults); conditions: cotton wool/sugar, 4 hours, read-out: grading of knockdown, MD/KD
Protocol: as §1, §2
In the case of the species Musca domestica (housefly), additional tests to determine the knockdown effect of the compounds were performed.
as §3, §4

Musca domestica [2] = assay: Insecticidal test, Musca domestica (houseflies - adults), contact; conditions: 24 h, cotton wool/sugar, 1 day, read-out: grading of mortality, MD
Protocol: as §1, §2, §3, §4

Tetranychus urticae = assay: Insecticidal/acaricidal test, Tetranychus urticae (spider mites - adult), contact; conditions: 72 h, 500 ppm, French bean leaf, 3 days, read-out: grading of mortality, TU
Protocol: as §1, §2, §3, §4

Structure (SMILES) | mortality at 500 ppm (Blattella germanica) [%] | mortality at 500 ppm (Diabrotica balteata) [%] | mortality at 500 ppm (Myzus persicae) [%] | mortality at 500 ppm (Nilaparvata lugens) [%] | pest or weed control at 500 ppm (Musca domestica [1]) [%] | mortality at 500 ppm (Musca domestica [2]) [%] | mortality at 250 ppm (Blattella germanica) [%] | mortality at 250 ppm (Diabrotica balteata) [%] | mortality at 250 ppm (Myzus persicae) [%] | mortality at 250 ppm (Nilaparvata lugens) [%] | mortality at 250 ppm (Heliothis virescens) [%] | pest or weed control at 250 ppm (Musca domestica [1]) [%] | mortality at 250 ppm (Musca domestica [2]) [%] | further results
CCOc1ccc(C(COCc2cccc(Oc3ccccc3)n2)C(F)(F)F)cc1 (centres unmarked) [Compound 4, 1,1,1-Trifluoro-2-(4-ethoxyphenyl)-3-(6-phenoxy-2-pyridylmethyloxy)propane] | – | – | – | – | – | – | – | – | – | – | – | – | – | mortality at 100 ppm (Blattella germanica): 80 to 100%; mortality at 100 ppm (Diabrotica balteata): 80 to 100%; mortality at 100 ppm (Myzus persicae): 80 to 100%; mortality at 100 ppm (Nilaparvata lugens): 80 to 100%; mortality at 100 ppm (Heliothis virescens): 80 to 100%; pest or weed control at 100 ppm (Musca domestica [1]): 80 to 100%; mortality at 100 ppm (Musca domestica [2]): 80 to 100%
OC(COCc1ccc(F)c(Oc2ccccc2)c1)(c1ccc(Cl)cc1)C(F)(F)F (centres unmarked) [Compound 126, 1,1,1-Trifluoro-2-(4-chlorophenyl)-3-(3-phenoxy-4-fluorobenzyloxy)propan-2-ol] | < 50 | < 50 | < 50 | < 50 | 80 to 100 | < 50 | – | – | – | – | – | – | – | mortality at 500 ppm (Tetranychus urticae): 80 to 100%
CCOc1ccc(C(O)(COCc2cccc(Oc3ccccc3)n2)C(F)(F)F)cc1 (centres unmarked) [Compound 141, 1,1,1-trifluoro-2-(4-ethoxyphenyl)-3-(6-phenoxy-2-pyridylmethyloxy)propan-2-ol] | < 50 | 50 to 79 | < 50 | 50 to 79 | 80 to 100 | 80 to 100 | – | – | – | – | – | – | – | mortality at 500 ppm (Heliothis virescens): 80 to 100%
OC(COCc1cccc(Oc2ccccc2)c1)(c1ccc(OC(F)(F)F)cc1)C(F)(F)F (centres unmarked) [Compound 139, 1,1,1-trifluoro-2-(4-trifluoromethoxyphenyl)-3-(3-phenoxybenzyloxy)-propan-2-ol] | < 50 | 80 to 100 | < 50 | < 50 | 80 to 100 | 80 to 100 | – | – | – | – | – | – | – | mortality at 500 ppm (Heliothis virescens): 80 to 100%
CCOc1ccc(C(O)(COCc2ccc(F)c(Oc3ccccc3)c2)C(F)(F)F)cc1 (centres unmarked) [Compound 113, 1,1,1-Trifluoro-2-(4-ethoxyphenyl)-3-(4-fluoro-3-phenoxybenzyloxy)propan-2-ol] | – | – | – | – | – | – | < 50 | 80 to 100 | < 50 | 50 to 79 | < 50 | 80 to 100 | 50 to 79 | –
CCOc1ccc(C(COCc2ccc(F)c(Oc3ccccc3)c2)(OC)C(F)(F)F)cc1 (centres unmarked) [Compound 150, 1,1,1-trifluoro-2-methoxy-2-(4-ethoxyphenyl)-3-(3-phenoxy-4-fluorobenzyloxy)propane] | – | – | – | – | – | – | < 50 | 80 to 100 | 50 to 79 | < 50 | 80 to 100 | < 50 | < 50 | –
CCOc1ccc(C(Cl)(COCc2ccc(F)c(Oc3ccc(Br)cc3)c2)C(F)(F)F)cc1 (centres unmarked) [Compound 43, 1,1,1-Trifluoro-2-chloro-2-(4-ethoxyphenyl)-3-(3-(4-bromophenoxy)-4-fluorobenzyloxy)propane] | 50 to 79 | < 50 | 80 to 100 | 80 to 100 | 80 to 100 | 80 to 100 | – | – | – | – | – | – | – | mortality at 500 ppm (Tetranychus urticae): 50 to 79%
CCOc1ccc(C(F)(COCc2c(F)c(F)c(C)c(F)c2F)C(F)(F)F)cc1 (centres unmarked) [Compound 78, 1,1,1,2-Tetrafluoro-2-(4-ethoxyphenyl)-3-(4-methyl-2,3,5,6-tetrafluorobenzyloxy)propane] | – | – | – | – | – | – | 80 to 100 | 80 to 100 | < 50 | 80 to 100 | 80 to 100 | < 50 | < 50 | –
CCOc1ccc(C(Cl)(COCc2cccc(Oc3ccccc3)n2)C(F)(F)F)cc1 (centres unmarked) [Compound 41, 1,1,1-Trifluoro-2-chloro-2-(4-ethoxyphenyl)-3-(6-phenoxy-2-pyridylmethyloxy)propane] | < 50 | 80 to 100 | 80 to 100 | 80 to 100 | 80 to 100 | 80 to 100 | – | – | – | – | – | – | – | mortality at 500 ppm (Heliothis virescens): 80 to 100%
CCOc1ccc(C(F)(COCc2ccc(F)c(Oc3ccccc3)c2)C(F)(F)F)cc1 (centres unmarked) [Compound 77, 1,1,1,2-Tetrafluoro-2-(4-ethoxyphenyl)-3-(3-phenoxy-4-fluorobenzyloxy)propane] | – | – | – | – | – | – | 80 to 100 | 80 to 100 | 80 to 100 | 80 to 100 | 80 to 100 | 80 to 100 | 80 to 100 | –
CCOc1ccc(C(COCc2ccc(F)c(Oc3ccccc3)c2)(OC(C)=O)C(F)(F)F)cc1 (centres unmarked) [Compound 149, 1,1,1-trifluoro-2-acetoxy-2-(4-ethoxyphenyl)-3-(3-phenoxy-4-fluorobenzyloxy)propane] | – | – | – | – | – | – | < 50 | < 50 | < 50 | 50 to 79 | 50 to 79 | < 50 | < 50 | –
CCOc1ccc(C(F)(COCc2cccc(Oc3ccccc3)n2)C(F)(F)F)cc1 (centres unmarked) [Compound 76, 1,1,1,2-Tetrafluoro-2-(4-ethoxyphenyl)-3-(6-phenoxy-2-pyridylmethyloxy)propane] | 80 to 100 | 80 to 100 | 80 to 100 | 80 to 100 | 80 to 100 | 80 to 100 | – | – | – | – | – | – | – | mortality at 500 ppm (Heliothis virescens): 80 to 100%
CCOc1ccc(C(O)(COCc2c(F)c(F)c(C)c(F)c2F)C(F)(F)F)cc1 (centres unmarked) [Compound 114, 1,1,1-Trifluoro-2-(4-ethoxyphenyl)-3-(4-methyl-2,3,5,6-tetrafluorobenzyloxy)propan-2-ol] | – | – | – | – | – | – | – | – | – | – | – | – | – | mortality at 100 ppm (Blattella germanica): < 50%; mortality at 100 ppm (Diabrotica balteata): < 50%; mortality at 100 ppm (Myzus persicae): < 50%; mortality at 100 ppm (Nilaparvata lugens): 50 to 79%; mortality at 100 ppm (Heliothis virescens): < 50%; pest or weed control at 100 ppm (Musca domestica [1]): < 50%; mortality at 100 ppm (Musca domestica [2]): < 50%
CCOc1ccc(C(Cl)(COCc2ccc(F)c(Oc3ccccc3)c2)C(F)(F)F)cc1 (centres unmarked) [Compound 40, 1,1,1-Trifluoro-2-chloro-2-(4-ethoxyphenyl)-3-(3-phenoxy-4-fluorobenzyloxy)propane] | – | – | – | – | – | – | 80 to 100 | 80 to 100 | 80 to 100 | 80 to 100 | 80 to 100 | 80 to 100 | 80 to 100 | –
Fc1ccc(COCC(F)(c2ccc(Cl)cc2)C(F)(F)F)cc1Oc1ccccc1 (centres unmarked) [Compound 81, 1,1,1,2-tetrafluoro-2-(4-chlorophenyl)-3-(3-phenoxy-4-fluorobenzyloxy)propane] | 80 to 100 | 80 to 100 | 80 to 100 | 80 to 100 | 80 to 100 | 80 to 100 | – | – | – | – | – | – | – | mortality at 500 ppm (Tetranychus urticae): < 50%
CCOc1ccc(C(F)(COCc2cccc(Oc3ccccc3)c2)C(F)(F)F)cc1 (centres unmarked) [Compound 75, 1,1,1,2-tetrafluoro-2-(4-ethoxyphenyl)-3-(3-phenoxybenzyloxy)propane] | – | – | – | – | – | – | – | – | – | – | – | – | – | mortality at 100 ppm (Blattella germanica): < 50%; mortality at 100 ppm (Diabrotica balteata): 80 to 100%; mortality at 100 ppm (Myzus persicae): 50 to 79%; mortality at 100 ppm (Nilaparvata lugens): 80 to 100%; mortality at 100 ppm (Heliothis virescens): < 50%; pest or weed control at 100 ppm (Musca domestica [1]): 80 to 100%; mortality at 100 ppm (Musca domestica [2]): 50 to 79%
CCOc1ccc(C(Cl)(COCc2c(F)c(F)c(C)c(F)c2F)C(F)(F)F)cc1 (centres unmarked) [Compound 39, 1,1,1-Trifluoro-2-chloro-2-(4-ethoxyphenyl)-3-(4-methyl-2,3,5,6-tetrafluorobenzyloxy)propane] | – | – | – | – | – | – | < 50 | < 50 | < 50 | 80 to 100 | < 50 | < 50 | < 50 | –
